From the supplement of paper PMC10307832

Tests used:
Experiment in all cases: relative viability (nuclei count vs DMSO), 5 days (fraction); higher = more cells survive
[1] = compound: C[C@@H](Oc1cc(-c2cnn(C3CCNCC3)c2)cnc1N)c1c(Cl)ccc(F)c1Cl [Crizotinib] + NC(=O)Nc1cc(-c2cccc(F)c2)sc1C(=O)N[C@H]1CCCNC1 [AZD7762] (partner 0.2 µM)
Summary of the method: (§1)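 Each reported value is a median over duplicate plates. It expresses relative viability: treated-well nuclei count divided by vehicle-well nuclei count. Lung cancer cell lines in 1536-well plates were dosed by pin tool a day after seeding, alone with one drug or with a fixed anchor-drug dose plus five library-drug doses (not always all listed) in √10 steps, and nuclei were counted after 5 days.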

[2] = compound: O=C(c1cc(Cc2n[nH]c(=O)c3ccccc23)ccc1F)N1CCN(C(=O)C2CC2)CC1 [Olaparib] + C[C@@H](Oc1cc(-c2cnn(C3CCNCC3)c2)cnc1N)c1c(Cl)ccc(F)c1Cl [Crizotinib] (partner 1 µM)
Summary of the method: as §1

[3] = compound: O=C(c1cc(Cc2n[nH]c(=O)c3ccccc23)ccc1F)N1CCN(C(=O)C2CC2)CC1 [Olaparib] + C[C@]1(O)C[C@@H](c2nc(-c3ccc4ccc(-c5ccccc5)nc4c3)c3c(N)nccn32)C1 [Linsitinib] (partner 1 µM)
Summary of the method: as §1

[4] = compound: CC(C)C[C@H](NC(=O)[C@H](CCc1ccccc1)NC(=O)CN1CCOCC1)C(=O)N[C@@H](Cc1ccccc1)C(=O)N[C@@H](CC(C)C)C(=O)[C@@]1(C)CO1 [Carfilzomib] + C[C@@H](Oc1cc(-c2cnn(C3CCNCC3)c2)cnc1N)c1c(Cl)ccc(F)c1Cl [Crizotinib] (partner 1 µM)
Summary of the method: as §1

| Cell Line | relative viability ([1]; first compound 0.01 µM) | relative viability ([1]; first compound 0.03162 µM) | relative viability ([1]; first compound 0.1 µM) | relative viability ([1]; first compound 1 µM) | relative viability ([2]; first compound 0.08 µM) | relative viability ([2]; first compound 0.253 µM) | relative viability ([2]; first compound 2.53 µM) | relative viability ([2]; first compound 8 µM) | relative viability ([3]; first compound 0.08 µM) | relative viability ([3]; first compound 0.253 µM) | relative viability ([3]; first compound 2.53 µM) | relative viability ([3]; first compound 8 µM) | relative viability ([4]; first compound 0.001 µM) | relative viability ([4]; first compound 0.003162 µM) | relative viability ([4]; first compound 0.01 µM) | relative viability ([4]; first compound 0.03162 µM) | relative viability ([4]; first compound 0.1 µM) | relative viability ([1]; first compound 0.3162 µM) |
| --- | --- | --- | --- | --- | --- | --- | --- | --- | --- | --- | --- | --- | --- | --- | --- | --- | --- | --- |
| HCC-366 | 0.239 | 0.324 | 0.309 | 0.289 | 0.517 | 0.473 | 0.238 | 0.145 | 0.67 | 0.479 | 0.447 | 0.303 | 0.396 | 0.518 | 0.674 | 0.299 | 0.016 | – |
| HCC-827 | 0.236 | 0.201 | 0.184 | 0.217 | 0.941 | 0.908 | 0.949 | 0.814 | 0.899 | 0.886 | 0.922 | 0.774 | 1.02 | 0.953 | 0.985 | 0.858 | 0.271 | 0.174 |
| HOP-62 | 0.447 | 0.508 | 0.622 | 0.633 | 1.07 | 0.902 | 0.792 | 0.631 | 1.11 | 1.16 | 0.968 | 0.47 | 0.952 | 0.966 | 0.845 | 0.099 | 0.0686 | 0.565 |
| IA-LM | – | – | – | – | 1.14 | 0.877 | 0.583 | 0.54 | 0.891 | 0.391 | 0.672 | 0.443 | 0.956 | 0.796 | 0.502 | 0.0235 | 0.0632 | – |
| LC-2-ad | 0.779 | 0.854 | 0.846 | 0.853 | 0.368 | 0.388 | 0.472 | 0.406 | 0.81 | 0.754 | 0.787 | 0.633 | 0.508 | 0.485 | 0.428 | 0.371 | 0.279 | – |
